The supplement of paper PMC10307832

What was measured:
Experiment in all cases: relative viability (nuclei count vs DMSO), 5 days (fraction); higher = more cells survive
Selisistat + Alpelisib = compound: C1CC(C2=C(C1)C3=C(N2)C=CC(=C3)Cl)C(=O)N [Selisistat] + Cc1nc(NC(=O)N2CCC[C@H]2C(N)=O)sc1-c1ccnc(C(C)(C)C(F)(F)F)c1 [Alpelisib] (partner 2 µM)
How it was run: (§1)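 Lung cancer cell lines were seeded in 1536-well plates and dosed by pin tool the next day, with either a single drug or a fixed anchor-drug dose combined with five library-drug doses (not always all listed) spaced in √10 steps. Five days later, one step fixed the cells and stained their nuclei (final 0.05% Triton X-100, 1% formaldehyde, 1 ug/ml Hoechst), and nuclei were counted on 4× images. Relative viability is the nuclei count in treated wells divided by the count in vehicle wells, and each value is the median of duplicate plates.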

Selisistat + Dasatinib = compound: C1CC(C2=C(C1)C3=C(N2)C=CC(=C3)Cl)C(=O)N [Selisistat] + Cc1nc(Nc2ncc(C(=O)Nc3c(C)cccc3Cl)s2)cc(N2CCN(CCO)CC2)n1 [Dasatinib] (partner 0.075 µM)
How it was run: as §1

Serdemetan + Foretinib = compound: c1ccc2c(CCNc3ccc(Nc4ccncc4)cc3)c[nH]c2c1 [Serdemetan] + COc1cc2c(Oc3ccc(NC(=O)C4(C(=O)Nc5ccc(F)cc5)CC4)cc3F)ccnc2cc1OCCCN1CCOCC1 [Foretinib] (partner 0.25 µM)
How it was run: as §1

Serdemetan + Phenformin = compound: c1ccc2c(CCNc3ccc(Nc4ccncc4)cc3)c[nH]c2c1 [Serdemetan] + N=C(N)NC(=N)NCCc1ccccc1 [Phenformin] (partner 250 µM)
How it was run: as §1

## NCI-H3122
Selisistat + Alpelisib; first compound 0.4 µM
  relative viability: 0.743
Selisistat + Alpelisib; first compound 1.265 µM
  relative viability: 0.694
Selisistat + Alpelisib; first compound 4 µM
  relative viability: 0.407
Selisistat + Alpelisib; first compound 12.65 µM
  relative viability: 0.873
Selisistat + Alpelisib; first compound 40 µM
  relative viability: 0.748
Selisistat + Dasatinib; first compound 0.4 µM
  relative viability: 0.999
Selisistat + Dasatinib; first compound 1.265 µM
  relative viability: 0.736
Selisistat + Dasatinib; first compound 4 µM
  relative viability: 0.639
Selisistat + Dasatinib; first compound 12.65 µM
  relative viability: 0.842
Selisistat + Dasatinib; first compound 40 µM
  relative viability: 0.791
Serdemetan + Foretinib; first compound 0.04 µM
  relative viability: 0.992
Serdemetan + Foretinib; first compound 0.1265 µM
  relative viability: 0.932
Serdemetan + Foretinib; first compound 0.4 µM
  relative viability: 0.972
Serdemetan + Foretinib; first compound 4 µM
  relative viability: 1.01
Serdemetan + Phenformin; first compound 0.04 µM
  relative viability: 0.302
Serdemetan + Phenformin; first compound 0.1265 µM
  relative viability: 0.363
Serdemetan + Phenformin; first compound 0.4 µM
  relative viability: 0.352
Serdemetan + Phenformin; first compound 1.265 µM
  relative viability: 0.236
Serdemetan + Phenformin; first compound 4 µM
  relative viability: 0.311

## PC-3 [JPC-3]
Selisistat + Alpelisib; first compound 0.4 µM
  relative viability: 1.08
Selisistat + Alpelisib; first compound 1.265 µM
  relative viability: 0.973
Selisistat + Alpelisib; first compound 4 µM
  relative viability: 1.05
Selisistat + Alpelisib; first compound 12.65 µM
  relative viability: 1.02
Selisistat + Alpelisib; first compound 40 µM
  relative viability: 1.05
Selisistat + Dasatinib; first compound 0.4 µM
  relative viability: 0.998
Selisistat + Dasatinib; first compound 1.265 µM
  relative viability: 0.976
Selisistat + Dasatinib; first compound 4 µM
  relative viability: 0.884
Selisistat + Dasatinib; first compound 12.65 µM
  relative viability: 0.975
Selisistat + Dasatinib; first compound 40 µM
  relative viability: 0.976
Serdemetan + Foretinib; first compound 0.04 µM
  relative viability: 0.98
Serdemetan + Foretinib; first compound 0.1265 µM
  relative viability: 1
Serdemetan + Foretinib; first compound 0.4 µM
  relative viability: 0.946
Serdemetan + Foretinib; first compound 1.265 µM
  relative viability: 1.09
Serdemetan + Foretinib; first compound 4 µM
  relative viability: 1.06
Serdemetan + Phenformin; first compound 0.04 µM
  relative viability: 0.475
Serdemetan + Phenformin; first compound 0.1265 µM
  relative viability: 0.494
Serdemetan + Phenformin; first compound 0.4 µM
  relative viability: 0.486
Serdemetan + Phenformin; first compound 1.265 µM
  relative viability: 0.482
Serdemetan + Phenformin; first compound 4 µM
  relative viability: 0.532

## PC-14
Selisistat + Alpelisib; first compound 0.4 µM
  relative viability: 0.918
Selisistat + Alpelisib; first compound 1.265 µM
  relative viability: 0.885
Selisistat + Alpelisib; first compound 4 µM
  relative viability: 0.994
Selisistat + Alpelisib; first compound 12.65 µM
  relative viability: 0.952
Selisistat + Alpelisib; first compound 40 µM
  relative viability: 1.1
Selisistat + Dasatinib; first compound 0.4 µM
  relative viability: 0.259
Selisistat + Dasatinib; first compound 1.265 µM
  relative viability: 0.302
Selisistat + Dasatinib; first compound 4 µM
  relative viability: 0.279
Selisistat + Dasatinib; first compound 12.65 µM
  relative viability: 0.289
Selisistat + Dasatinib; first compound 40 µM
  relative viability: 0.3
Serdemetan + Foretinib; first compound 0.04 µM
  relative viability: 0.862
Serdemetan + Foretinib; first compound 0.1265 µM
  relative viability: 0.939
Serdemetan + Foretinib; first compound 0.4 µM
  relative viability: 0.376
Serdemetan + Foretinib; first compound 1.265 µM
  relative viability: 0.83
Serdemetan + Foretinib; first compound 4 µM
  relative viability: 1.1
Serdemetan + Phenformin; first compound 0.04 µM
  relative viability: 0.59
Serdemetan + Phenformin; first compound 0.1265 µM
  relative viability: 0.537
Serdemetan + Phenformin; first compound 1.265 µM
  relative viability: 0.531
Serdemetan + Phenformin; first compound 4 µM
  relative viability: 0.549

## RERF-LC-KJ
Selisistat + Alpelisib; first compound 0.4 µM
  relative viability: 0.853
Selisistat + Alpelisib; first compound 1.265 µM
  relative viability: 0.754
Selisistat + Alpelisib; first compound 4 µM
  relative viability: 0.632
Selisistat + Alpelisib; first compound 12.65 µM
  relative viability: 0.789
Selisistat + Alpelisib; first compound 40 µM
  relative viability: 0.73
Selisistat + Dasatinib; first compound 0.4 µM
  relative viability: 1.04
Selisistat + Dasatinib; first compound 1.265 µM
  relative viability: 0.813
Selisistat + Dasatinib; first compound 4 µM
  relative viability: 0.818
Selisistat + Dasatinib; first compound 12.65 µM
  relative viability: 0.625
Selisistat + Dasatinib; first compound 40 µM
  relative viability: 0.568
Serdemetan + Foretinib; first compound 0.04 µM
  relative viability: 0.836
Serdemetan + Foretinib; first compound 0.1265 µM
  relative viability: 0.884
Serdemetan + Foretinib; first compound 0.4 µM
  relative viability: 0.786
Serdemetan + Foretinib; first compound 1.265 µM
  relative viability: 0.79
Serdemetan + Foretinib; first compound 4 µM
  relative viability: 0.887
Serdemetan + Phenformin; first compound 0.04 µM
  relative viability: 0.349
Serdemetan + Phenformin; first compound 0.1265 µM
  relative viability: 0.507
Serdemetan + Phenformin; first compound 0.4 µM
  relative viability: 0.389
Serdemetan + Phenformin; first compound 1.265 µM
  relative viability: 0.404
Serdemetan + Phenformin; first compound 4 µM
  relative viability: 0.399

## SK-LU-1
Selisistat + Alpelisib; first compound 0.4 µM
  relative viability: 1.02
Selisistat + Alpelisib; first compound 1.265 µM
  relative viability: 1.05
Selisistat + Alpelisib; first compound 4 µM
  relative viability: 1.33
Selisistat + Alpelisib; first compound 12.65 µM
  relative viability: 1.03
Selisistat + Alpelisib; first compound 40 µM
  relative viability: 0.846
Selisistat + Dasatinib; first compound 0.4 µM
  relative viability: 0.166
Selisistat + Dasatinib; first compound 1.265 µM
  relative viability: 0.176
Selisistat + Dasatinib; first compound 4 µM
  relative viability: 0.186
Selisistat + Dasatinib; first compound 12.65 µM
  relative viability: 0.191
Selisistat + Dasatinib; first compound 40 µM
  relative viability: 0.184
Serdemetan + Foretinib; first compound 0.04 µM
  relative viability: 0.767
Serdemetan + Foretinib; first compound 0.1265 µM
  relative viability: 0.745
Serdemetan + Foretinib; first compound 0.4 µM
  relative viability: 0.77
Serdemetan + Foretinib; first compound 4 µM
  relative viability: 0.61
Serdemetan + Phenformin; first compound 0.04 µM
  relative viability: 0.484
Serdemetan + Phenformin; first compound 0.1265 µM
  relative viability: 0.573
Serdemetan + Phenformin; first compound 0.4 µM
  relative viability: 0.538
Serdemetan + Phenformin; first compound 4 µM
  relative viability: 0.343

## SK-MES-1
Selisistat + Alpelisib; first compound 0.4 µM
  relative viability: 1.01
Selisistat + Alpelisib; first compound 1.265 µM
  relative viability: 0.951
Selisistat + Alpelisib; first compound 4 µM
  relative viability: 0.836
Selisistat + Alpelisib; first compound 12.65 µM
  relative viability: 0.838
Selisistat + Alpelisib; first compound 40 µM
  relative viability: 0.896
Selisistat + Dasatinib; first compound 0.4 µM
  relative viability: 0.451
Selisistat + Dasatinib; first compound 1.265 µM
  relative viability: 0.294
Selisistat + Dasatinib; first compound 4 µM
  relative viability: 0.293
Selisistat + Dasatinib; first compound 12.65 µM
  relative viability: 0.346
Selisistat + Dasatinib; first compound 40 µM
  relative viability: 0.264
Serdemetan + Foretinib; first compound 0.04 µM
  relative viability: 0.877
Serdemetan + Foretinib; first compound 0.1265 µM
  relative viability: 0.915
Serdemetan + Foretinib; first compound 0.4 µM
  relative viability: 0.842
Serdemetan + Foretinib; first compound 1.265 µM
  relative viability: 0.847
Serdemetan + Foretinib; first compound 4 µM
  relative viability: 0.534
Serdemetan + Phenformin; first compound 0.04 µM
  relative viability: 0.634
Serdemetan + Phenformin; first compound 0.1265 µM
  relative viability: 0.646
Serdemetan + Phenformin; first compound 0.4 µM
  relative viability: 0.605
Serdemetan + Phenformin; first compound 1.265 µM
  relative viability: 0.576
Serdemetan + Phenformin; first compound 4 µM
  relative viability: 0.456

## SW 1573
Selisistat + Alpelisib; first compound 0.4 µM
  relative viability: 0.703
Selisistat + Alpelisib; first compound 1.265 µM
  relative viability: 0.884
Selisistat + Alpelisib; first compound 4 µM
  relative viability: 0.716
Selisistat + Alpelisib; first compound 12.65 µM
  relative viability: 0.804
Selisistat + Alpelisib; first compound 40 µM
  relative viability: 0.864
Selisistat + Dasatinib; first compound 0.4 µM
  relative viability: 0.567
Selisistat + Dasatinib; first compound 1.265 µM
  relative viability: 0.385
Selisistat + Dasatinib; first compound 4 µM
  relative viability: 0.456
Selisistat + Dasatinib; first compound 12.65 µM
  relative viability: 0.616
Selisistat + Dasatinib; first compound 40 µM
  relative viability: 0.499
Serdemetan + Foretinib; first compound 0.04 µM
  relative viability: 0.898
Serdemetan + Foretinib; first compound 0.1265 µM
  relative viability: 0.815
Serdemetan + Foretinib; first compound 0.4 µM
  relative viability: 0.877
Serdemetan + Foretinib; first compound 1.265 µM
  relative viability: 0.668
Serdemetan + Foretinib; first compound 4 µM
  relative viability: 0.422
Serdemetan + Phenformin; first compound 0.04 µM
  relative viability: 0.36
Serdemetan + Phenformin; first compound 0.1265 µM
  relative viability: 0.334
Serdemetan + Phenformin; first compound 0.4 µM
  relative viability: 0.289
Serdemetan + Phenformin; first compound 1.265 µM
  relative viability: 0.211
Serdemetan + Phenformin; first compound 4 µM
  relative viability: 0.245
